Test results reported in publication PMC8269107, “Lipidation of Temporin-1CEb Derivatives as a Tool for Activity Improvement, Pros and Cons of the Approach” (International Journal of Molecular Sciences, 2021).
Converted amounts (≈) assume the structure as drawn. Where a SMILES comes first, the peptide text is derived from it. [ ]: non-standard residue; d: D form. The star is where a group is joined. Palmitoyl = CCCCCCCCCCCCCCCC(=O)*; Lauroyl = CCCCCCCCCCCC(=O)*; Pentanoyl = CCCCC(=O)*; AEEA = NCCOCCOCC(=O)O; Ahx = NCCCCCC(=O)O; βAla = NCCC(=O)O

How the values were obtained:
S. aureus PCM 2054 = test: MIC, broth microdilution; type: cell-based, Staphylococcus aureus; conditions: S. aureus PCM 2054, standard Mueller-Hinton broth, 24 h
Text: (§1) Escherichia coli (PCM 2057 = ATCC 25922), Staphylococcus aureus (PCM 2054 = ATCC 25923), Staphylococcus epidermidis (PCM 2118 = ATCC 14990), Bacillus subtilis (PCM 2224 = ATCC 9799), Bacillus cereus (PCM 482 = ATCC 10702) and Pseudomonas aeruginosa (PCM 499 = ATCC 10145) were obtained from the Polish Collection of Microorganisms. Fungi strains Candida albicans (CCM 8186 = CNTC 49/64), Candida glabrata (CCM 8270 = ATCC 90030), Candida parapsilosis (CCM 8260 = ATCC 22019) and Candida krusei (CCM 8271 = ATCC 6258) were acquired from the Czech Collection of Microorganisms. S. aureus USA300 (wild type strain), the reference strain of Klebsiella pneumoniae (ATCC 13883) and clinical isolates of Pseudomonas aeruginosa (PA1, PA2) collected from nonrelated patients admitted to the Stefan Zeromski Specialist Municipal Hospital in Krakow (Poland) were kindly provided by the research group of the Department of Microbiology, Faculty of Biochemistry, Biophysics and Biotechnology, Jagiellonian University, Krakow, Poland.
(§2) Luria-Bertani broth (LB) and Sabouraud Dextrose broth (SB) (Biocorp, Poland) were used for cultivation of bacteria and fungi strains, respectively. The antimicrobial activity of the peptides were analyzed through determination of MIC (minimal inhibitory concentration) parameters according to Clinical and Laboratory Standards (CLSI) guidelines developed for aerobic bacteria and yeasts, respectively. Mueller-Hinton broth (MHB) was used as the working medium for all bacterial strains, while in the case of fungi, RPMI-1640 (with L-glutamine, without sodium bicarbonate) growth medium buffered with MOPS (morpholinepropanesulfonic acid) and supplemented with 2% glucose was used. Inoculum was prepared from freshly grown cultures of microorganisms at their exponential phase of growth. […] Plates were then incubated for 24 h at 37 °C in the case of bacteria and at 35 °C in the case of fungi. After that time, absorbance was read at 590 nm with a Perkin Elmer plate reader. Cultures without peptide were treated as positive control, while uninoculated media were defined as negative control. All measurements were run at least in triplicate.

[1] = test system: S. aureus (PCM 2054) biofilm; test: Biofilm inhibition assay (MTT); type: cell-based, Staphylococcus aureus; conditions: S. aureus biofilm development, 24 h post-inoculation
Experimental: In the case of bacteria, an overnight culture of S. aureus in Tryptic Soy Broth (TSB) supplemented with 2% glucose (TSB/+G) was used to prepare inoculum for the experiments. Briefly, 5 mL of 24 h culture was centrifuged at 5000× g, washed with sterile PBS and suspended in a fresh 2 × concentrated TSB/+G. In the case of yeasts, the overnight culture of C. albicans in Sabouraud dextrose broth (SB) was used for inoculum preparation. Similar to above, 5 mL of 24 h culture was centrifuged, washed with PBS and then suspended in sterile 2 × concentrated RPMI-1640 medium (with L-glutamine, without sodium bicarbonate) supplemented with 2% glucose (RPMI-1640/+G). In both cases, the cell concentration of the inoculum was about 1 × 10^7 cells per ml.
For the determination of the inhibitory concentration that reduced biofilm development by 50% (BIC50^, expressed in µg/mL), 100 µL inoculum in 2 × concentrated RPMI-1640/+G medium (in the case of C. albicans) or 2 x concentrated TSB/+G broth (in the case of S. aureus) was transferred to each well of 96-well plates containing 100 µL of serially diluted in water tested compounds. The final concentrations of the compounds were the same as those used in MIC determination studies. The 96-well plates were then incubated for 24 h at 37 °C and 35 °C in the case of bacteria and fungi, respectively. Viability of the microorganisms in the presence of the tested compounds was analyzed by means of MTT assay.
(§3) The reduction in biofilm viability was analyzed by means of MTT assay. Briefly, 20 μL of MTT solution (5 mg/mL in PBS) was added to prewashed wells with exchanged medium (180 μL of fresh medium) wells containing bacterial/yeast biofilms. Plates were then incubated in the dark for the next 3 h at 37 °C. After that time, the medium was replaced with 6 mM HCl in isopropanol and, when the reduced MTT was fully dissolved, the plates were read at 570 nm. Activity against fully developed 24 h old biofilm was described as biofilm eradication concentration (BEC50 expressed in µg/mL), which corresponded to the concentration of the compound able to reduce 50% of biofilm viability compared with the growth control.

S. epidermidis PCM 2118 = test: MIC, broth microdilution; type: cell-based, Staphylococcus epidermidis; conditions: S. epidermidis PCM 2118, 24 h
Text: as §1, §2

[2] = test system: S. aureus (PCM 2054) biofilm; test: Biofilm eradication assay, pre-formed 24 h old biofilm (MTT); type: cell-based, Staphylococcus aureus; conditions: S. aureus pre-formed 24 h old biofilm, 24 h treatment
Experimental: Biofilm eradication activity of the synthesized compounds was analyzed against 24 h old biofilms of S. aureus and C. albicans. In the case of bacteria, an overnight culture of S. aureus in Tryptic Soy Broth (TSB) supplemented with 2% glucose (TSB/+G) was used to prepare inoculum for the experiments. Briefly, 5 mL of 24 h culture was centrifuged at 5000× g, washed with sterile PBS and suspended in a fresh TSB/+G. The bacterial suspension was then diluted in a fresh growth medium to obtain the final concentration of colonies of about 1 × 10^7 cells per ml. Further, 200 μL of the inoculum was transferred to each well of 96-well sterile polystyrene flat-bottomed plate, and bacteria were then incubated for the next 24 h without shaking at 37 °C.
After that, each well of the plates containing bacterial or fungi biofilm was washed three times with PBS in order to remove all non-adherent cells. Then, peptide solutions of 200 µL ranging from 50 to 0,39 µg/mL prepared in TSB +/G in the case of experiments on S. aureus biofilm, and (RPMI-1640/+G) in the case of C. alibcans, were prepared and transferred into the microtiter plates. After the addition of the peptides, the experiments were continued for the next 24 h.
as §3

SMILES | MIC100 (S. aureus PCM 2054) | BIC50 [1] | MIC100 (S. epidermidis PCM 2118) | BEC50 [2]
CC[C@H](C)[C@H](NC(=O)COCCOCCNC(=O)[C@H](Cc1c[nH]cn1)NC(=O)CCNC(=O)CCCCCN)C(=O)N[C@@H](CCCCN)C(=O)N[C@@H](CCCCN)C(=O)N[C@H](C(=O)N[C@@H](CC(C)C)C(=O)N[C@@H](CO)C(=O)N[C@@H](CCCCN)C(=O)N[C@H](C(=O)N[C@@H](CCCCN)C(=O)N[C@@H](CCCCN)C(=O)N[C@@H](CC(C)C)C(=O)N[C@@H](CC(C)C)C(N)=O)[C@@H](C)CC)[C@@H](C)CC [AHX-CAR-PEG-DK5] (H-[Ahx][βAla]H[AEEA]IKKILSKIKKLL-NH2) | >50 µg/mL | >50 µg/mL | 6.25 µg/mL (≈ 3.31 µM) | >50 µg/mL
CC[C@H](C)[C@H](NC(=O)CCCCCN)C(=O)N[C@@H](CCCCN)C(=O)N[C@@H](CCCCN)C(=O)N[C@H](C(=O)N[C@@H](CC(C)C)C(=O)N[C@@H](CO)C(=O)N[C@@H](CCCCN)C(=O)N[C@H](C(=O)N[C@@H](CCCCN)C(=O)N[C@@H](CCCCN)C(=O)N[C@@H](CC(C)C)C(=O)N[C@@H](CC(C)C)C(N)=O)[C@@H](C)CC)[C@@H](C)CC [AHX-DK5] (H-[Ahx]IKKILSKIKKLL-NH2) | >50 µg/mL | 6.25 µg/mL | 0.78 µg/mL (≈ 0.507 µM) | 25 µg/mL
CCCCC(=O)NCCC(=O)N[C@@H](Cc1c[nH]cn1)C(=O)NCCOCCOCC(=O)N[C@H](C(=O)N[C@@H](CCCCN)C(=O)N[C@@H](CCCCN)C(=O)N[C@H](C(=O)N[C@@H](CC(C)C)C(=O)N[C@@H](CO)C(=O)N[C@@H](CCCCN)C(=O)N[C@H](C(=O)N[C@@H](CCCCN)C(=O)N[C@@H](CCCCN)C(=O)N[C@@H](CC(C)C)C(=O)N[C@@H](CC(C)C)C(N)=O)[C@@H](C)CC)[C@@H](C)CC)[C@@H](C)CC [C5-CAR-PEG-DK5] ({Pentanoyl-βAla}-H[AEEA]IKKILSKIKKLL-NH2) | >50 µg/mL | >50 µg/mL | 6.25 µg/mL (≈ 3.36 µM) | >50 µg/mL
CCCCCCCCCCCC(=O)NCCC(=O)N[C@@H](Cc1c[nH]cn1)C(=O)NCCOCCOCC(=O)N[C@H](C(=O)N[C@@H](CCCCN)C(=O)N[C@@H](CCCCN)C(=O)N[C@H](C(=O)N[C@@H](CC(C)C)C(=O)N[C@@H](CO)C(=O)N[C@@H](CCCCN)C(=O)N[C@H](C(=O)N[C@@H](CCCCN)C(=O)N[C@@H](CCCCN)C(=O)N[C@@H](CC(C)C)C(=O)N[C@@H](CC(C)C)C(N)=O)[C@@H](C)CC)[C@@H](C)CC)[C@@H](C)CC [C12-CAR-PEG-DK5] ({Lauroyl-βAla}-H[AEEA]IKKILSKIKKLL-NH2) | 6.25 µg/mL (≈ 3.19 µM) | – | 0.78 µg/mL (≈ 0.398 µM) | –
CCCCCCCCCCCCCCCC(=O)NCCC(=O)N[C@@H](Cc1c[nH]cn1)C(=O)NCCOCCOCC(=O)N[C@H](C(=O)N[C@@H](CCCCN)C(=O)N[C@@H](CCCCN)C(=O)N[C@H](C(=O)N[C@@H](CC(C)C)C(=O)N[C@@H](CO)C(=O)N[C@@H](CCCCN)C(=O)N[C@H](C(=O)N[C@@H](CCCCN)C(=O)N[C@@H](CCCCN)C(=O)N[C@@H](CC(C)C)C(=O)N[C@@H](CC(C)C)C(N)=O)[C@@H](C)CC)[C@@H](C)CC)[C@@H](C)CC [C16-CAR-PEG-DK5] ({Palmitoyl-βAla}-H[AEEA]IKKILSKIKKLL-NH2) | >50 µg/mL | 10 µg/mL | 25 µg/mL (≈ 12.4 µM) | 6.25 µg/mL
CC[C@H](C)[C@H](NC(=O)COCCOCCNC(=O)[C@H](Cc1c[nH]cn1)NC(=O)CCN)C(=O)N[C@@H](CCCCN)C(=O)N[C@@H](CCCCN)C(=O)N[C@H](C(=O)N[C@@H](CC(C)C)C(=O)N[C@@H](CO)C(=O)N[C@@H](CCCCN)C(=O)N[C@H](C(=O)N[C@@H](CCCCN)C(=O)N[C@@H](CCCCN)C(=O)N[C@@H](CC(C)C)C(=O)N[C@@H](CC(C)C)C(N)=O)[C@@H](C)CC)[C@@H](C)CC [CAR-PEG-DK5] (H-[βAla]H[AEEA]IKKILSKIKKLL-NH2; N-terminus and C-terminus assumed) | >50 µg/mL | >50 µg/mL | 3.9 µg/mL (≈ 2.19 µM) | >50 µg/mL
CCCCC(=O)N[C@H](C(=O)N[C@@H](CCCCN)C(=O)N[C@@H](CCCCN)C(=O)N[C@H](C(=O)N[C@@H](CC(C)C)C(=O)N[C@@H](CO)C(=O)N[C@@H](CCCCN)C(=O)N[C@H](C(=O)N[C@@H](CCCCN)C(=O)N[C@@H](CCCCN)C(=O)N[C@@H](CC(C)C)C(=O)N[C@@H](CC(C)C)C(N)=O)[C@@H](C)CC)[C@@H](C)CC)[C@@H](C)CC [Compound C5-DK5] (Pentanoyl-IKKILSKIKKLL-NH2) | 12.5 µg/mL (≈ 8.29 µM) | 6.25 µg/mL | 0.78 µg/mL (≈ 0.517 µM) | >50 µg/mL
CCCCCCCCCCCC(=O)N[C@H](C(=O)N[C@@H](CCCCN)C(=O)N[C@@H](CCCCN)C(=O)N[C@H](C(=O)N[C@@H](CC(C)C)C(=O)N[C@@H](CO)C(=O)N[C@@H](CCCCN)C(=O)N[C@H](C(=O)N[C@@H](CCCCN)C(=O)N[C@@H](CCCCN)C(=O)N[C@@H](CC(C)C)C(=O)N[C@@H](CC(C)C)C(N)=O)[C@@H](C)CC)[C@@H](C)CC)[C@@H](C)CC [Compound C12-DK5] (Lauroyl-IKKILSKIKKLL-NH2) | 6.25 µg/mL (≈ 3.89 µM) | 6.25 µg/mL | 0.78 µg/mL (≈ 0.486 µM) | 6.25 µg/mL
CCCCCCCCCCCCCCCC(=O)N[C@H](C(=O)N[C@@H](CCCCN)C(=O)N[C@@H](CCCCN)C(=O)N[C@H](C(=O)N[C@@H](CC(C)C)C(=O)N[C@@H](CO)C(=O)N[C@@H](CCCCN)C(=O)N[C@H](C(=O)N[C@@H](CCCCN)C(=O)N[C@@H](CCCCN)C(=O)N[C@@H](CC(C)C)C(=O)N[C@@H](CC(C)C)C(N)=O)[C@@H](C)CC)[C@@H](C)CC)[C@@H](C)CC [Compound C16-DK5] (Palmitoyl-IKKILSKIKKLL-NH2) | >50 µg/mL | 6.25 µg/mL | 25 µg/mL (≈ 15 µM) | 6.25 µg/mL
